According to paper PMC9354042, “Discovery of BRAF/HDAC Dual Inhibitors Suppressing Proliferation of Human Colorectal Cancer Cells” (Frontiers in Chemistry, 2022):

What was measured:
BRAF^V600E = target: T1, BRAF^V600E (Homo sapiens, UniProt P15056, V600E); assay: BRAF V600E enzymatic activity, FRET-based Z'-Lyte kinase assay; assay type: biochemical
T1 construct: purchased Invitrogen
Experimental: The experiments were performed according to the instructions of the manufacturer. […] For each assay, 10 μl kinase reactions were added to 384-well plate, mixed thoroughly, and incubated for 1 hour at room temperature. Then, a 5 μl development solution was added to each well and the plate was incubated for another 1 h at room temperature. Then, a 5 μl stop reagent was loaded to stop the reaction. For the control setting, a 5 μl phospho-peptide solution instead of kinase/peptide mixture was used as 100% phosphorylation control. […] The plate was measured on an EnVision Multilabel Reader (Perkin-Elmer). Curve fitting and data presentations were performed using GraphPad Prism, version 5.0. Every experiment was repeated at least two times.

HDAC1 = target: T2, HDAC1 (Homo sapiens, UniProt Q13547); assay: HDAC1 fluorescent-based enzymatic activity assay; assay type: biochemical; details: Table 1; read-out: Enzymatic IC50 HDAC1
T2 construct: purchased BPS Bioscience
T2 sequence (Q13547 whole entry): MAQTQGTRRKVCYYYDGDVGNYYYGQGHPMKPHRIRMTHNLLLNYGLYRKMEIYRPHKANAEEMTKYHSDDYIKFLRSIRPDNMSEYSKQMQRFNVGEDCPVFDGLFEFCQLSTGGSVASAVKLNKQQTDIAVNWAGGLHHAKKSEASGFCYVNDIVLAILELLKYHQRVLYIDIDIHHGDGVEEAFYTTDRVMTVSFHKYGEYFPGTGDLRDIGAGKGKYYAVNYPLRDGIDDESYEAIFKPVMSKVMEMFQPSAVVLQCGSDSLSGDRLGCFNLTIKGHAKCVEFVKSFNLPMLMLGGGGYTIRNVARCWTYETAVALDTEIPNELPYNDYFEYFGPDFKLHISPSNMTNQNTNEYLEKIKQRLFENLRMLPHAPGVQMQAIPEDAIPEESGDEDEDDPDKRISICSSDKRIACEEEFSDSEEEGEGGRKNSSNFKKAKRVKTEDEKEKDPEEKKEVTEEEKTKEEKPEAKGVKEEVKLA
Experimental: (§1) The purified recombinant Human HDACs and their corresponding substrates were purchased from BPS Bioscience (BPS Bioscience Inc., United States). The assays were carried out in a 384-well format using the BPS fluorescent–based HDAC activity assay according to the manufacturer’s protocol. In brief, […] of the HDAC reaction mixture was composed of HDAC assay buffer, […] BSA, serial diluted test compounds, appropriate concentration of HDACs, and […] fluorogenic substrate, the mixture was incubated at 37°C for 60 min, and then stopped by the addition of developer containing trypsin and TSA. After 20 min of incubation, the fluorescence was detected at the excitation wavelength of 360 nm and the emission wavelength of 460 nm using the EnVision Multilabel Reader (PerkinElmer Inc., United States). The analytical software, GraphPad Prism 5.0 (GraphPad Software, Inc., United States) was used to generate IC50 value via non-linear regression analysis.

HDAC6 = target: T3, HDAC6 (Homo sapiens, UniProt Q9UBN7); assay: HDAC6 fluorescent-based enzymatic activity assay; assay type: biochemical; details: Table 1; read-out: Enzymatic IC50 HDAC6
T3 construct: purchased BPS Bioscience
T3 sequence (Q9UBN7 1-1215): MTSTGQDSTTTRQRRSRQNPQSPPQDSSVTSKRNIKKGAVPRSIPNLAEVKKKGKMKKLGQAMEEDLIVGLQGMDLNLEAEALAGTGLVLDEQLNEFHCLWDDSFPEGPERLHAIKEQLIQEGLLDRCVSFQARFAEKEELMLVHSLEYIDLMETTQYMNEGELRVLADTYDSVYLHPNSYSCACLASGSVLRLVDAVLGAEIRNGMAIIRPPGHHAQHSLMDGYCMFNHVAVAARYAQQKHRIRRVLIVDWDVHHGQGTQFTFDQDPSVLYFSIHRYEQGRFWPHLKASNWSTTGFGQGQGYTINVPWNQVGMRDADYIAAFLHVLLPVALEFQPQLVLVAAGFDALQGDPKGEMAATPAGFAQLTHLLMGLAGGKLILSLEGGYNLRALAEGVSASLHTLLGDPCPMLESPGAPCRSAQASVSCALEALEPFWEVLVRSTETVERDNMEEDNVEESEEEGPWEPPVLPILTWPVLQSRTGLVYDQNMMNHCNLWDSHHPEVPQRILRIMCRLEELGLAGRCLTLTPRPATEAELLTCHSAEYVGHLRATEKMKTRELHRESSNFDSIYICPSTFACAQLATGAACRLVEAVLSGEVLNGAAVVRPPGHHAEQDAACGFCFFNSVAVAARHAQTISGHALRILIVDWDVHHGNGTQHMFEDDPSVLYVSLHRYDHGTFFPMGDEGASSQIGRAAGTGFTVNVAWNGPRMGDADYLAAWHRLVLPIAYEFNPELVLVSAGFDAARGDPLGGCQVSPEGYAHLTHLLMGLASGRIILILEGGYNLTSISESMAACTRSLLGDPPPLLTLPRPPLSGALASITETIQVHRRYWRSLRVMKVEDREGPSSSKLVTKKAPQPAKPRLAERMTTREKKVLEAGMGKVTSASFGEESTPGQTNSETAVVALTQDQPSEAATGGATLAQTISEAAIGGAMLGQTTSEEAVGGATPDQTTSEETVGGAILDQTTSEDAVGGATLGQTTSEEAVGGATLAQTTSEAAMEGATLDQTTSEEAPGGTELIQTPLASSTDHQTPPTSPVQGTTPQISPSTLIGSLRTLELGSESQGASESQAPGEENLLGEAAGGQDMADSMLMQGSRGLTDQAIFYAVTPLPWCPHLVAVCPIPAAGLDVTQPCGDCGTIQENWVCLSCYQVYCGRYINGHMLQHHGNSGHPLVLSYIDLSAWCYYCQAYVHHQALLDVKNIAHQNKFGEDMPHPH
Experimental: as §1

HCT116 cells = assay: Antiproliferation CCK-8 assay, HCT116; assay type: cell-based; details: Homo sapiens, HCT-116; CCK-8, 72 h, HCT116 (wild-type BRAF); means of three independent experiments; read-out: Cellular IC50 HCT116
Experimental: (§2) HCT116 and HT-29 cells were obtained from the Shanghai Cell Bank (Type Culture Collection (TCC), Chinese Academy of Sciences) and cultured in DMEM (10–013-CVR, corning) supplemented with 10% fetal bovine serum (04-001-1A, BI), 1% penicillin/streptomycin (03-031-1B, BI).
(§3) The cells in the logarithmic phase were placed in 96-well plates (∼3000 cells/well) in a complete medium. After incubation overnight, the cells were exposed to the corresponding compounds or vehicle control at the indicated concentration for a further 72 h. Cell proliferation was evaluated using Cell Counting Kit 8 (CCK8, CK04, Dojindo Laboratories, Kumamoto, Japan). OD450 and OD650 were determined using a microplate reader. Absorbance rate (A) for each well was calculated as OD450 −OD650. […] Each IC50 value is expressed as mean ± SD. As is the absorbance rate of the test compound well, Ac is the absorbance rate of the well without either the cell or test compound, and Ab is the absorbance rate of the well with the cell and vehicle control.

HT-29 cells = assay: Antiproliferation CCK-8 assay, HT-29; assay type: cell-based; details: Homo sapiens; CCK-8, 72 h, HT-29 (BRAF^V600E); means of three independent experiments; read-out: Cellular IC50 HT-29
Experimental: as §2, §3

T1 sequence (P15056 whole entry V600E): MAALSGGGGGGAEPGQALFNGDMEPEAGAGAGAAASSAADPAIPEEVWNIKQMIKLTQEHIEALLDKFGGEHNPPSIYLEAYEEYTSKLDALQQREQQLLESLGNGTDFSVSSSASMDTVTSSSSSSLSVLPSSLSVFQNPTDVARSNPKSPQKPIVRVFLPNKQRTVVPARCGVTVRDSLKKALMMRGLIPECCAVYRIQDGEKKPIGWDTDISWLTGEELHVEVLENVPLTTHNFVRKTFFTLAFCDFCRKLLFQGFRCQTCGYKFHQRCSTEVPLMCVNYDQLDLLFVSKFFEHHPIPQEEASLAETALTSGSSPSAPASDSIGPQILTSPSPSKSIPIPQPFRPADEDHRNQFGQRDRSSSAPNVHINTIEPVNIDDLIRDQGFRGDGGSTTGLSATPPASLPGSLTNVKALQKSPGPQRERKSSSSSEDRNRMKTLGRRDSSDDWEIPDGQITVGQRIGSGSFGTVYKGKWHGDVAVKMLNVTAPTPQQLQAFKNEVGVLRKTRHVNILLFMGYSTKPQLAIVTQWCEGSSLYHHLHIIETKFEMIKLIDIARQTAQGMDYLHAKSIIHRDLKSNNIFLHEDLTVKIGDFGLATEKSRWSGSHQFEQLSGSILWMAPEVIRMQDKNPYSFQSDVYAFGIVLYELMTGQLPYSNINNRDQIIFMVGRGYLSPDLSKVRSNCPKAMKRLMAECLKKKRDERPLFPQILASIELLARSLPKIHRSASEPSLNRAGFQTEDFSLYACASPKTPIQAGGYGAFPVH

| IC50 (BRAF^V600E) | IC50 (HDAC1) | IC50 (HDAC6) | IC50 (HCT116 cells) | IC50 (HT-29 cells) | SMILES |
| --- | --- | --- | --- | --- | --- |
| 107 nM | 52.2 nM | 18.8 nM | 9150 nM | > 10000 nM | CCS(=O)(=O)Nc1cccc(-c2nc(C)sc2-c2ccnc(NCCCCCCC(=O)NO)n2)c1F [21e, 7-{[4-(4-(3-(Ethylsulfonamido)-2-Fluorophenyl)-2-Methylthiazol-5-yl)Pyrimidin-2-yl]Amino}-N-Hydroxyheptanamide] |
| 258 nM | 71 nM | 21.8 nM | > 10000 nM | > 10000 nM | Cc1nc(-c2cccc(NS(C)(=O)=O)c2F)c(-c2ccnc(NCCCCCCC(=O)NO)n2)s1 [21d, 7-{[4-(4-(2-Fluoro-3-(Methylsulfonamido)Phenyl)-2-Methylthiazol-5-yl)Pyrimidin-2-yl]Amino}-N-Hydroxyheptanamide] |
| 1.03 nM | 113 nM | 22.2 nM | 8520 nM | 5020 nM | CC(C)(C)c1nc(-c2cccc(NS(C)(=O)=O)c2F)c(-c2ccnc(NCCCCCCC(=O)NO)n2)s1 [21a, 7-{[4-(2-(Tert-Butyl)-4-(2-Fluoro-3-(Methylsulfonamido)Phenyl)Thiazol-5-yl)Pyrimidin-2-yl]Amino}-N-Hydroxyheptanamide] |
| 1.71 nM | 432 nM | 72.1 nM | 5440 nM | 780 nM | CCCS(=O)(=O)Nc1cccc(-c2nc(C(C)(C)C)sc2-c2ccnc(NCCCCCCC(=O)NO)n2)c1F [21b, 7-{[4-(2-(Tert-Butyl)-4-(2-Fluoro-3-(Propylsulfonamido)Phenyl)Thiazol-5-yl)Pyrimidin-2-yl]Amino}-N-Hydroxyheptanamide] |
| 3.92 nM | 49.4 nM | 18.7 nM | 4410 nM | 4960 nM | Cc1nc(-c2cccc(NS(=O)(=O)c3ccccc3)c2F)c(-c2ccnc(NCCCCCCC(=O)NO)n2)s1 [21f, 7-{[4-(4-(2-Fluoro-3-(Phenylsulfonamido)Phenyl)-2-Methylthiazol-5-yl)Pyrimidin-2-yl]Amino}-N-Hydroxyheptanamide] |

Second part, the compound before the results:

| SMILES | IC50 (BRAF^V600E) | IC50 (HDAC1) | IC50 (HDAC6) | IC50 (HCT116 cells) | IC50 (HT-29 cells) |
| --- | --- | --- | --- | --- | --- |
| CCc1nc(-c2cccc(NS(=O)(=O)c3c(F)cccc3F)c2F)c(-c2ccnc(NCCCCCCC(=O)NO)n2)s1 [14f, 7-{[4-(4-(3-(2,6-Difluorophenylsulfonamido)-2-Fluorophenyl)-2-Ethylthiazol-5-yl)Pyrimidin-2-yl]Amino}-N-Hydroxyheptanamide] | 1.66 nM | 61.3 nM | 26.5 nM | 4270 nM | 1270 nM |
| CC(C)(C)c1nc(-c2cccc(NS(=O)(=O)c3c(F)cccc3F)c2F)c(-c2ccnc(NCCCCCCCC(=O)NO)n2)s1 [14c, 8-{[4-(2-(Tert-Butyl)-4-(3-(2,6-Difluorophenylsulfonamido)-2-Fluorophenyl)Thiazol-5-yl)Pyrimidin-2-yl]Amino}-N-Hydroxyoctanamide] | 2.27 nM | 312 nM | 128 nM | 4470 nM | 880 nM |
| CCCc1nc(-c2cccc(NS(=O)(=O)c3c(F)cccc3F)c2F)c(-c2ccnc(NCCCCCCC(=O)NO)n2)s1 [14i, 7-{[4-(4-(3-(2,6-Difluorophenylsulfonamido)-2-Fluorophenyl)-2-Propylthiazol-5-yl)Pyrimidin-2-yl]Amino}-N-Hydroxyheptanamide] | 1.07 nM | 105 nM | 64.6 nM | 3080 nM | 970 nM |
| CC(C)(C)c1nc(-c2cccc(NS(=O)(=O)c3c(F)cccc3F)c2F)c(-c2ccnc(NCCCCCCCCC(=O)NO)n2)s1 [14d, 9-{[4-(2-(Tert-Butyl)-4-(3-(2,6-Difluorophenylsulfonamido)-2-Fluorophenyl)Thiazol-5-yl)Pyrimidin-2-yl]Amino}-N-Hydroxynonanamide] | 3.82 nM | 765 nM | 322 nM | 3660 nM | 480 nM |
| CC(C)(C)c1nc(-c2cccc(NS(=O)(=O)c3c(F)cccc3F)c2F)c(-c2ccnc(NCCCCCC(=O)NO)n2)s1 [14a] | 3.25 nM | 679 nM | 1210 nM | 3000 nM | 1000 nM |
| CC(C)c1nc(-c2cccc(NS(=O)(=O)c3c(F)cccc3F)c2F)c(-c2ccnc(NCCCCCCC(=O)NO)n2)s1 [14g, 7-{[4-(4-(3-(2,6-Difluorophenylsulfonamido)-2-Fluorophenyl)-2-Isopropylthiazol-5-yl)Pyrimidin-2-yl]Amino}-N-Hydroxyheptanamide] | 1.51 nM | 130 nM | 30 nM | 2680 nM | 990 nM |
| O=C(CCCCCCNc1nccc(-c2sc(C3CC3)nc2-c2cccc(NS(=O)(=O)c3c(F)cccc3F)c2F)n1)NO [14h, 7-{[4-(2-Cyclopropyl-4-(3-(2,6-Difluorophenylsulfonamido)-2-Fluorophenyl)Thiazol-5-yl)Pyrimidin-2-yl]Amino}-N-Hydroxyheptanamide] | 1.31 nM | 49.8 nM | 27.1 nM | 4710 nM | 2210 nM |
| Cc1nc(-c2cccc(NS(=O)(=O)c3c(F)cccc3F)c2F)c(-c2ccnc(NCCCCCCC(=O)NO)n2)s1 [14e, 7-{[4-(4-(3-(2,6-Difluorophenylsulfonamido)-2-Fluorophenyl)-2-Methylthiazol-5-yl)Pyrimidin-2-yl]Amino}-N-Hydroxyheptanamide] | 3.5 nM | 42.2 nM | 14.6 nM | 7530 nM | 6390 nM |
